Test results published in patent US8030478B2, “Method for nucleic acid replication and novel artificial base pairs” (priority 2005, dated 2011).
Like-named read-outs stand apart in the source and are kept apart here. Marks after values point to notes of the source that are not given here.

Biological target: T7 RNA polymerase (Escherichia phage T7, UniProt P00573)
Details: [α-32P]ATP, natural NTP 1 mM; for Composition of nucleotide incorporated as 5′ neighbor of A: Gp: theoretical [2]
[1] = Entry 1, template temp35Ds-3, Pa 1 mM, theoretical [0]
[2] = Entry 1, template temp35Ds-3, Pa 1 mM, theoretical [1]
[3] = Entry 2, template temp35Ds-3, Pa 3 mM, theoretical [0]
[4] = Entry 2, template temp35Ds-3, Pa 3 mM, theoretical [1]
[5] = Entry 3, template temp35A-3, Pa 1 mM, theoretical [0]
[6] = Entry 3, template temp35A-3, Pa 1 mM, theoretical [1]
[7] = Entry 4, template temp35A-3, Pa 3 mM, theoretical [0]
[8] = Entry 4, template temp35A-3, Pa 3 mM, theoretical [1]
[9] = Entry 5, template temp35G-3, Pa 1 mM, theoretical [0]
[10] = Entry 5, template temp35G-3, Pa 1 mM, theoretical [1]
[11] = Entry 6, template temp35G-3, Pa 3 mM, theoretical [0]
[12] = Entry 6, template temp35G-3, Pa 3 mM, theoretical [1]

Chain of T7 RNA polymerase (P00573 whole entry): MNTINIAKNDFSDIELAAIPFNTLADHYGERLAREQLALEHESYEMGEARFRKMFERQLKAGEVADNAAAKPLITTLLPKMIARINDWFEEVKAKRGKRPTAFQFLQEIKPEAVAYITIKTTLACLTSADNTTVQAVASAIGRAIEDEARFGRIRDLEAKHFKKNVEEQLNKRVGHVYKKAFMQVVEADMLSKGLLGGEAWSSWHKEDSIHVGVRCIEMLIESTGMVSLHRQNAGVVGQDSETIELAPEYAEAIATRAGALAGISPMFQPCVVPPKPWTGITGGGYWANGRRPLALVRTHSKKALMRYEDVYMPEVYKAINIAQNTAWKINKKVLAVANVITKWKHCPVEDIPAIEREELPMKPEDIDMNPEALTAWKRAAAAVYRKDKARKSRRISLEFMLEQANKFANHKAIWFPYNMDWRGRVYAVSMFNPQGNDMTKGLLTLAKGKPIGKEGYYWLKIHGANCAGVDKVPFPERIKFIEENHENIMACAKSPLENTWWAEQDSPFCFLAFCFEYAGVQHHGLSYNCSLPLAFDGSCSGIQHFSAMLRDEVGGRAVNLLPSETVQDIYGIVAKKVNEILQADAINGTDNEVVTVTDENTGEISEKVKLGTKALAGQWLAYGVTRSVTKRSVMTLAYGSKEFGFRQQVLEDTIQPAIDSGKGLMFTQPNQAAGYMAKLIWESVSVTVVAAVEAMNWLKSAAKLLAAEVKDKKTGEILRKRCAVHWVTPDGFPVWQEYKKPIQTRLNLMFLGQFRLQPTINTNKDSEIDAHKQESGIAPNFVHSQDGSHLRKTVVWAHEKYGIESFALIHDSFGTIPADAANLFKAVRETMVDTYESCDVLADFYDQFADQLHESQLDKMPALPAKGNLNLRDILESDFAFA

Compound: O=Cc1cccn1[C@@H]1O[C@H](COP(=O)(O)OP(=O)(O)OP(=O)(O)O)[C@@H](O)[C@H]1O [PaTP, 1-(β-D-Ribofuranosyl)pyrrole-2-carbaldehyde 5′-triphosphate]
- Composition of nucleotide incorporated as 5′ neighbor of A: Cp [1]: 0.01 [0]
- Composition of nucleotide incorporated as 5′ neighbor of A: Up [1]: 0.02 [0]
- Composition of nucleotide incorporated as 5′ neighbor of A: Ap [2]: 1.03^c [1]^d
- Composition of nucleotide incorporated as 5′ neighbor of A: Np (Pap) [2]: 0.97 [1]
- Composition of nucleotide incorporated as 5′ neighbor of A: Gp (Entry 1, template temp35Ds-3, Pa 1 mM): 1.97 [2]
- Composition of nucleotide incorporated as 5′ neighbor of A: Cp [3]: 0.01 [0]
- Composition of nucleotide incorporated as 5′ neighbor of A: Up [3]: 0.01 [0]
- Composition of nucleotide incorporated as 5′ neighbor of A: Ap [4]: 1.01 [1]
- Composition of nucleotide incorporated as 5′ neighbor of A: Np (Pap) [4]: 1.00 [1]
- Composition of nucleotide incorporated as 5′ neighbor of A: Gp (Entry 2, template temp35Ds-3, Pa 3 mM): 1.96 [2]
- Composition of nucleotide incorporated as 5′ neighbor of A: Cp [5]: n.d.^f [0]
- Composition of nucleotide incorporated as 5′ neighbor of A: Np (Pap) [5]: n.d. [0]
- Composition of nucleotide incorporated as 5′ neighbor of A: Ap [6]: 0.99 [1]
- Composition of nucleotide incorporated as 5′ neighbor of A: Up [6]: 1.04 [1]
- Composition of nucleotide incorporated as 5′ neighbor of A: Gp (Entry 3, template temp35A-3, Pa 1 mM): 1.96 [2]
- Composition of nucleotide incorporated as 5′ neighbor of A: Cp [7]: n.d. [0]
- Composition of nucleotide incorporated as 5′ neighbor of A: Np (Pap) [7]: n.d. [0]
- Composition of nucleotide incorporated as 5′ neighbor of A: Ap [8]: 0.99 [1]
- Composition of nucleotide incorporated as 5′ neighbor of A: Up [8]: 1.03 [1]
- Composition of nucleotide incorporated as 5′ neighbor of A: Gp (Entry 4, template temp35A-3, Pa 3 mM): 1.97 [2]
- Composition of nucleotide incorporated as 5′ neighbor of A: Np (Pap) [9]: n.d. [0]
- Composition of nucleotide incorporated as 5′ neighbor of A: Up [9]: 0.01 [0]
- Composition of nucleotide incorporated as 5′ neighbor of A: Ap [10]: 1.02 [1]
- Composition of nucleotide incorporated as 5′ neighbor of A: Cp [10]: 1.01 [1]
- Composition of nucleotide incorporated as 5′ neighbor of A: Gp (Entry 5, template temp35G-3, Pa 1 mM): 1.96 [2]
- Composition of nucleotide incorporated as 5′ neighbor of A: Np (Pap) [11]: n.d. [0]
- Composition of nucleotide incorporated as 5′ neighbor of A: Up [11]: 0.01 [0]
- Composition of nucleotide incorporated as 5′ neighbor of A: Ap [12]: 1.01 [1]
- Composition of nucleotide incorporated as 5′ neighbor of A: Cp [12]: 1.00 [1]
- Composition of nucleotide incorporated as 5′ neighbor of A: Gp (Entry 6, template temp35G-3, Pa 3 mM): 1.98 [2]
